Assay results: paper PMC5218480 (PLoS ONE, 2017)

System: MV-4-11 cells
Test: Gene expression microarray analysis (Affymetrix PrimeView) and GSEA
Assay type: cell-based, human
Set-up: RFU PODN (11730768_x_at) / Fold change /veh PODN (11730768_x_at) / RFU LINC00158 (11744669_a_at) / Fold change /veh LINC00158 (11744669_a_at) / RFU DUSP10 (11751237_a_at) / Fold change /veh DUSP10 (11751237_a_at) / RFU ID3 (11757404_x_at) / Fold change /veh ID3 (11757404_x_at) / RFU PLEKHG5 (11737974_s_at) / Fold change /veh PLEKHG5 (11737974_s_at) / RFU LRRC4B (11730491_at) / Fold change /veh LRRC4B (11730491_at) / RFU GIMAP4 (11747438_a_at) / Fold change /veh GIMAP4 (11747438_a_at) / RFU KRT8 (11758183_x_at) / Fold change /veh KRT8 (11758183_x_at) / RFU CNN1 (11734310_a_at) / Fold change /veh CNN1 (11734310_a_at) / RFU VPS37D (11726825_at) / Fold change /veh VPS37D (11726825_at) / RFU C10orf10 (11716522_x_at) / Fold change /veh C10orf10 (11716522_x_at) / RFU KIR2DL2 /// KIR2DL4 /// KIR2DL5A /// KIR2DL5B /// KIR2DS1 /// KIR2DS2 /// KIR2DS3 /// KIR2DS4 /// KIR3DL3 /// KIR3DL3 /// KIR3DS1 (11738374_at) / Fold change /veh KIR2DL2 /// KIR2DL4 /// KIR2DL5A /// KIR2DL5B /// KIR2DS1 /// KIR2DS2 /// KIR2DS3 /// KIR2DS4 /// KIR3DL3 /// KIR3DL3 /// KIR3DS1 (11738374_at) / RFU C1QL1 (11718748_at) / Fold change /veh C1QL1 (11718748_at) / RFU TMPRSS4 (11747572_a_at) / Fold change /veh TMPRSS4 (11747572_a_at) / RFU HAMP (11756126_x_at) / Fold change /veh HAMP (11756126_x_at) / RFU RNFT2 (11725882_a_at) / Fold change /veh RNFT2 (11725882_a_at) / RFU NR4A2 (11747474_a_at) / Fold change /veh NR4A2 (11747474_a_at) / RFU ABCC12 (11746883_a_at) / Fold change /veh ABCC12 (11746883_a_at) / RFU TMEM136 (11760407_x_at) / Fold change /veh TMEM136 (11760407_x_at) / RFU CLDN22 /// WWC2 (11732394_at) / Fold change /veh CLDN22 /// WWC2 (11732394_at) / RFU HLA-DPB1 (11760878_x_at) / Fold change /veh HLA-DPB1 (11760878_x_at) / RFU SPINT1 (11716480_a_at) / Fold change /veh SPINT1 (11716480_a_at) / RFU GAP43 (11754022_s_at) / Fold change /veh GAP43 (11754022_s_at) / RFU A4GNT (11735810_at) / Fold change /veh A4GNT (11735810_at) / RFU PRB3 (11715151_x_at) / Fold change /veh PRB3 (11715151_x_at) / RFU TUBB4B (11761932_at) / Fold change /veh TUBB4B (11761932_at) / RFU CAPN14 (11732068_a_at) / Fold change /veh CAPN14 (11732068_a_at) / RFU TMCC2 (11721928_a_at) / Fold change /veh TMCC2 (11721928_a_at) / RFU IRGQ (11745062_a_at) / Fold change /veh IRGQ (11745062_a_at) / RFU FAM174B (11720279_a_at) / Fold change /veh FAM174B (11720279_a_at) / RFU TMPRSS4 (11748680_a_at) / Fold change /veh TMPRSS4 (11748680_a_at) / RFU FAM212B (11763350_a_at) / Fold change /veh FAM212B (11763350_a_at) / RFU PLEKHG5 (11743358_a_at) / Fold change /veh PLEKHG5 (11743358_a_at) / RFU ZSCAN30 (11745921_a_at) / Fold change /veh ZSCAN30 (11745921_a_at) / RFU CMKLR1 (11741424_a_at) / Fold change /veh CMKLR1 (11741424_a_at) / RFU LOC101060620 /// MAPK8IP1 (11723275_at) / Fold change /veh LOC101060620 /// MAPK8IP1 (11723275_at) / RFU SPTSSB (11747773_x_at) / Fold change /veh SPTSSB (11747773_x_at) / RFU PRSS12 (11739890_at) / Fold change /veh PRSS12 (11739890_at) / RFU BIN1 (11741810_x_at) / Fold change /veh BIN1 (11741810_x_at) / RFU WNT11 (11732464_a_at) / Fold change /veh WNT11 (11732464_a_at) / RFU C10orf10 (11716521_a_at) / Fold change /veh C10orf10 (11716521_a_at) / RFU C5orf56 (11738089_at) / Fold change /veh C5orf56 (11738089_at) / RFU CYB561 (11721691_x_at) / Fold change /veh CYB561 (11721691_x_at) / RFU ANKRD19P (11752326_a_at) / Fold change /veh ANKRD19P (11752326_a_at) / RFU OR2T12 /// OR2T33 /// OR2T8 (11738714_s_at) / Fold change /veh OR2T12 /// OR2T33 /// OR2T8 (11738714_s_at) / RFU VCAN (11748164_a_at) / Fold change /veh VCAN (11748164_a_at) / RFU JSRP1 (11732532_at) / Fold change /veh JSRP1 (11732532_at) / RFU KRTAP10-11 (11738290_x_at) / Fold change /veh KRTAP10-11 (11738290_x_at) / RFU MYO3A (11730013_a_at) / Fold change /veh MYO3A (11730013_a_at) / RFU EBF3 (11725865_a_at) / Fold change /veh EBF3 (11725865_a_at) / RFU CAMK2N1 (11719241_x_at) / Fold change /veh CAMK2N1 (11719241_x_at) / RFU C5orf56 (11738088_a_at) / Fold change /veh C5orf56 (11738088_a_at) / RFU OLFML3 (11715873_a_at) / Fold change /veh OLFML3 (11715873_a_at) / RFU LOC100653217 /// NTM (11731650_a_at) / Fold change /veh LOC100653217 /// NTM (11731650_a_at) / RFU MAPK11 (11762145_a_at) / Fold change /veh MAPK11 (11762145_a_at) / RFU FIZ1 (11724087_x_at) / Fold change /veh FIZ1 (11724087_x_at) / RFU OASL (11726364_x_at) / Fold change /veh OASL (11726364_x_at) / RFU SOX15 (11748057_x_at) / Fold change /veh SOX15 (11748057_x_at) / RFU CD79A (11719716_a_at) / Fold change /veh CD79A (11719716_a_at) / RFU HIST1H1D (11736915_at) / Fold change /veh HIST1H1D (11736915_at) / RFU CASKIN2 (11723855_a_at) / Fold change /veh CASKIN2 (11723855_a_at) / RFU LOC730098 (11760151_x_at) / Fold change /veh LOC730098 (11760151_x_at) / RFU OR4N2 (11742367_at) / Fold change /veh OR4N2 (11742367_at) / RFU PRRT2 (11749266_a_at) / Fold change /veh PRRT2 (11749266_a_at) / RFU SNX32 (11753110_a_at) / Fold change /veh SNX32 (11753110_a_at) / RFU CDHR5 (11726645_a_at) / Fold change /veh CDHR5 (11726645_a_at) / RFU RCAN1 (11760418_a_at) / Fold change /veh RCAN1 (11760418_a_at) / RFU FAM167A (11723789_a_at) / Fold change /veh FAM167A (11723789_a_at) / RFU FAM26E (11764081_at) / Fold change /veh FAM26E (11764081_at) / RFU ISYNA1 (11749810_s_at) / Fold change /veh ISYNA1 (11749810_s_at) / RFU ACY1 (11761880_at) / Fold change /veh ACY1 (11761880_at) / RFU 11764098_at / Fold change /veh 11764098_at / RFU SAMD14 (11745864_x_at) / Fold change /veh SAMD14 (11745864_x_at) / RFU NPB (11741838_a_at) / Fold change /veh NPB (11741838_a_at) / RFU TMPRSS6 (11731388_a_at) / Fold change /veh TMPRSS6 (11731388_a_at) / RFU KRTAP10-2 (11738614_at) / Fold change /veh KRTAP10-2 (11738614_at) / RFU ARHGAP8 /// PRR5-ARHGAP8 (11727945_x_at) / Fold change /veh ARHGAP8 /// PRR5-ARHGAP8 (11727945_x_at) / RFU KRTAP5-7 /// NADSYN1 (11734609_at) / Fold change /veh KRTAP5-7 /// NADSYN1 (11734609_at) / RFU RASL12 (11751679_a_at) / Fold change /veh RASL12 (11751679_a_at) / RFU CDKN2B (11736163_a_at) / Fold change /veh CDKN2B (11736163_a_at) / RFU PRF1 (11729649_at) / Fold change /veh PRF1 (11729649_at) / RFU, ZNF638 /// ZNF638-IT1 / Fold change vs veh, ZNF638 /// ZNF638-IT1 / RFU, PANK3 / Fold change vs veh, PANK3 / RFU, SH3YL1 / Fold change vs veh, SH3YL1 / RFU, ZEB2 / Fold change vs veh, ZEB2 / RFU, NRIP1 / Fold change vs veh, NRIP1 / RFU, PTTG1IP / Fold change vs veh, PTTG1IP / RFU, CAPN2 / Fold change vs veh, CAPN2 / RFU, MED14 / Fold change vs veh, MED14 / RFU, SNORA58 / Fold change vs veh, SNORA58 / RFU, C1orf63 / Fold change vs veh, C1orf63 / RFU, LRRFIP1 / Fold change vs veh, LRRFIP1 / RFU, NDUFAF7 / Fold change vs veh, NDUFAF7 / RFU, SLC12A2 / Fold change vs veh, SLC12A2 / RFU, IBTK / Fold change vs veh, IBTK / RFU, ESF1 / Fold change vs veh, ESF1 / Fold change vs veh, TMEM50B / RFU, TAOK1 / Fold change vs veh, TAOK1 / RFU, ACBD3 / Fold change vs veh, ACBD3 / RFU, TMA16 / Fold change vs veh, TMA16 / RFU, RWDD3 / Fold change vs veh, RWDD3 / RFU, BCAT1 / Fold change vs veh, BCAT1 / RFU, EDEM3 / Fold change vs veh, EDEM3 / RFU, TMEM33 / Fold change vs veh, TMEM33 / RFU, WDR75 / Fold change vs veh, WDR75 / RFU, AHCTF1 / Fold change vs veh, AHCTF1 / RFU, TFRC / Fold change vs veh, TFRC / RFU, ZDHHC17 / Fold change vs veh, ZDHHC17 / RFU, NOM1 / Fold change vs veh, NOM1 / RFU, ARL8B / Fold change vs veh, ARL8B / RFU, ZBTB11 / Fold change vs veh, ZBTB11 / RFU, TAMM41 / Fold change vs veh, TAMM41 / RFU, KIAA1704 /// LOC100996395 / Fold change vs veh, KIAA1704 /// LOC100996395 / RFU, ING1 / Fold change vs veh, ING1 / RFU, TRMT61B / Fold change vs veh, TRMT61B / RFU, FUBP3 / Fold change vs veh, FUBP3 / RFU, TP53 / Fold change vs veh, TP53 / RFU, TNKS2 / Fold change vs veh, TNKS2 / RFU, ZFP14 / Fold change vs veh, ZFP14 / RFU, ACTR2 / Fold change vs veh, ACTR2 / RFU, PPP3R1 / Fold change vs veh, PPP3R1 / RFU, PIK3R1 / Fold change vs veh, PIK3R1 / RFU, HNRNPA1 / Fold change vs veh, HNRNPA1 / RFU, RNF170 / Fold change vs veh, RNF170 / RFU, ZNF28 / Fold change vs veh, ZNF28 / RFU, RNGTT / Fold change vs veh, RNGTT / RFU, OGT / Fold change vs veh, OGT / RFU, BRD1 / Fold change vs veh, BRD1 / RFU, MARS / Fold change vs veh, MARS / RFU, ZNF655 / Fold change vs veh, ZNF655 / RFU, FAHD1 / Fold change vs veh, FAHD1 / RFU, BDP1 / Fold change vs veh, BDP1 / RFU, LRRCC1 / Fold change vs veh, LRRCC1 / RFU, ARID1A / Fold change vs veh, ARID1A / RFU, ZNF146 / Fold change vs veh, ZNF146 / RFU, ZNF330 / Fold change vs veh, ZNF330 / RFU, GPN3 / Fold change vs veh, GPN3 / RFU, C9orf123 / Fold change vs veh, C9orf123 / RFU, N4BP2L2 / Fold change vs veh, N4BP2L2 / RFU, ARFIP1 / Fold change vs veh, ARFIP1 / RFU, FAM179B / Fold change vs veh, FAM179B / RFU, BCL10 / Fold change vs veh, BCL10 / RFU, UHRF1BP1L / Fold change vs veh, UHRF1BP1L / RFU, BET1 / Fold change vs veh, BET1 / RFU, CNOT2 / Fold change vs veh, CNOT2 / RFU, ZNF268 / Fold change vs veh, ZNF268 / Fold change vs veh, ZNF507 / RFU, DGCR2 / Fold change vs veh, DGCR2 / RFU, WDSUB1 / Fold change vs veh, WDSUB1 / Fold change vs veh, HSP90B1 /// MIR3652 / RFU, ADSS / Fold change vs veh, ADSS / RFU, GK / Fold change vs veh, GK / RFU, ZNF148 / Fold change vs veh, ZNF148 / RFU, TAF9 / Fold change vs veh, TAF9 / RFU, SLC1A5 / Fold change vs veh, SLC1A5 / RFU, SLMO2 / Fold change vs veh, SLMO2 / RFU, ABCC4 / Fold change vs veh, ABCC4 / RFU, LOC101060439 /// RAP1B / Fold change vs veh, LOC101060439 /// RAP1B / RFU, RFX7 / Fold change vs veh, RFX7 / RFU, GTPBP10 / Fold change vs veh, GTPBP10 / RFU, CNEP1R1 / Fold change vs veh, CNEP1R1 / RFU, BIVM-ERCC5 /// ERCC5 / Fold change vs veh, BIVM-ERCC5 /// ERCC5 / RFU, ILF3 / Fold change vs veh, ILF3 / RFU 11762660_at / Fold change /veh 11762660_at / RFU VCAN (11757783_s_at) / Fold change /veh VCAN (11757783_s_at) / RFU DDX43 (11728927_at) / Fold change /veh DDX43 (11728927_at) / RFU KRT8 (11758188_x_at) / Fold change /veh KRT8 (11758188_x_at) / RFU NKD1 (11759106_at) / Fold change /veh NKD1 (11759106_at) / RFU SRD5A1 (11742802_a_at) / Fold change /veh SRD5A1 (11742802_a_at) / RFU TPSAB1 /// TPSB2 (11721975_s_at) / Fold change /veh TPSAB1 /// TPSB2 (11721975_s_at) / RFU GSTM3 (11746129_a_at) / Fold change /veh GSTM3 (11746129_a_at) / RFU IL23R (11737362_x_at) / Fold change /veh IL23R (11737362_x_at) / RFU TMEM51 (11727254_a_at) / Fold change /veh TMEM51 (11727254_a_at) / RFU PIWIL2 (11732686_x_at) / Fold change /veh PIWIL2 (11732686_x_at) / RFU ORM1 (11744905_x_at) / Fold change /veh ORM1 (11744905_x_at) / RFU CCDC152 (11743942_at) / Fold change /veh CCDC152 (11743942_at) / RFU ECM1 (11717891_a_at) / Fold change /veh ECM1 (11717891_a_at) / RFU IL23R (11748794_a_at) / Fold change /veh IL23R (11748794_a_at) / RFU TNFAIP8L3 (11732012_x_at) / Fold change /veh TNFAIP8L3 (11732012_x_at) / RFU MBOAT4 (11741988_at) / Fold change /veh MBOAT4 (11741988_at) / RFU 11764193_at / Fold change /veh 11764193_at / RFU TMEM53 (11763286_at) / Fold change /veh TMEM53 (11763286_at) / RFU MAGEB2 (11727129_at) / Fold change /veh MAGEB2 (11727129_at) / RFU TMEM200A (11744735_a_at) / Fold change /veh TMEM200A (11744735_a_at) / RFU CCDC152 (11751479_a_at) / Fold change /veh CCDC152 (11751479_a_at) / RFU FAM211A (11726209_a_at) / Fold change /veh FAM211A (11726209_a_at) / RFU RGS16 (11746705_a_at) / Fold change /veh RGS16 (11746705_a_at) / RFU VCAN (11755009_s_at) / Fold change /veh VCAN (11755009_s_at) / RFU RHOB (11743442_s_at) / Fold change /veh RHOB (11743442_s_at) / RFU RGS16 (11720943_a_at) / Fold change /veh RGS16 (11720943_a_at) / RFU RGS16 (11720944_at) / Fold change /veh RGS16 (11720944_at) / RFU, VPS4B / Fold change vs veh, VPS4B / RFU, CREB1 / Fold change vs veh, CREB1 / RFU, DNAJC13 / Fold change vs veh, DNAJC13 / RFU, GNAQ / Fold change vs veh, GNAQ / RFU, CDK5R1 / Fold change vs veh, CDK5R1 / RFU, ZRANB3 / Fold change vs veh, ZRANB3 / RFU, CUL4A / Fold change vs veh, CUL4A / RFU, CCNY / Fold change vs veh, CCNY / RFU, UFL1 / Fold change vs veh, UFL1 / RFU, COG3 / Fold change vs veh, COG3 / RFU, DIAPH2 / Fold change vs veh, DIAPH2 / RFU, SKA2 / Fold change vs veh, SKA2 / RFU, AFF3 / Fold change vs veh, AFF3 / RFU, LMF1 / Fold change vs veh, LMF1 / RFU, IPO11 / Fold change vs veh, IPO11 / RFU, DFFB / Fold change vs veh, DFFB / RFU, FOXP1 / Fold change vs veh, FOXP1 / RFU, CARD8 / Fold change vs veh, CARD8 / RFU, STRN3 / Fold change vs veh, STRN3 / RFU, ADK / Fold change vs veh, ADK / RFU, RASSF2 / Fold change vs veh, RASSF2 / RFU, WIPF1 / Fold change vs veh, WIPF1 / RFU, LARP1B / Fold change vs veh, LARP1B / RFU, RASA1 / Fold change vs veh, RASA1 / RFU, RB1 / Fold change vs veh, RB1 / RFU, PPFIA1 / Fold change vs veh, PPFIA1 / RFU, MAT2A / Fold change vs veh, MAT2A / RFU, CCT5 / Fold change vs veh, CCT5 / RFU, WDR92 / Fold change vs veh, WDR92 / RFU, CUX1 / Fold change vs veh, CUX1 / RFU, TTC7A / Fold change vs veh, TTC7A / RFU, TMEM135 / Fold change vs veh, TMEM135 / RFU, DEPTOR / Fold change vs veh, DEPTOR / RFU, CPM / Fold change vs veh, CPM / RFU, DNAJB6 / Fold change vs veh, DNAJB6 / RFU, CACNA2D3 / Fold change vs veh, CACNA2D3 / RFU, DTX4 / Fold change vs veh, DTX4 / RFU, TFCP2 / Fold change vs veh, TFCP2 / RFU, GMCL1 /// GMCL1P1 / Fold change vs veh, GMCL1 /// GMCL1P1 / RFU, AEBP2 / Fold change vs veh, AEBP2 / RFU, SNHG1 /// SNORD22 /// SNORD25 /// SNORD26 /// SNORD27 /// SNORD28 /// SNORD29 /// SNORD31 / Fold change vs veh, SNHG1 /// SNORD22 /// SNORD25 /// SNORD26 /// SNORD27 /// SNORD28 /// SNORD29 /// SNORD31 / Fold change (Aza/veh), C12orf56 (ProbeSet 11735607_a_at) / Fold change (ACY-1035/veh), C12orf56 (ProbeSet 11735607_a_at) / Fold change (Aza/veh), FGFR1OP (ProbeSet 11751329_s_at) / Fold change (ACY-1035/veh), FGFR1OP (ProbeSet 11751329_s_at) / Fold change (Aza/veh), VPS36 (ProbeSet 11739960_a_at) / Fold change (ACY-1035/veh), VPS36 (ProbeSet 11739960_a_at) / RFU SYPL1 (11715823_x_at) / Fold change /veh SYPL1 (11715823_x_at) / RFU IGFBP7 (11715501_s_at) / Fold change /veh IGFBP7 (11715501_s_at) / RFU REEP3 (11722064_at) / Fold change /veh REEP3 (11722064_at) / RFU IGLL1 (11728026_x_at) / Fold change /veh IGLL1 (11728026_x_at): dose or concentration left out as unconfirmed
Details: ProbeSet 11740781_a_at; LIST B

## Nc1ccc(-c2cccs2)cc1NC(=O)c1ccc2c(c1)cc(C1CC1)n2CCN1CCOCC1 [ACY-1035]
  RFU, ILF3: 238.85 RFU
